Laboratory results reported in ChEMBL document CHEMBL4706663, “Large-scale isolation and antitumor mechanism evaluation of compounds from the traditional Chinese medicine Cordyceps Militaris” (Eur J Med Chem, 2021).
Active and inactive are the calls of the source. The rule behind the calls is not given here.

Legend:
[1] = system: A549; test: Antiproliferative activity against human A549 cells assessed as inhibition of cell growth at 12.5 ug/ml measured after 48 hrs by real-time cell analysis relative to control; type: functional; conditions: read-out: GI
[2] = system: HepG2; test: Antiproliferative activity against human HepG2 cells assessed as inhibition of cell growth at 12.5 ug/ml measured after 48 hrs by real-time cell analysis relative to control; type: functional; conditions: read-out: GI
[3] = Antitumor activity against […] cancer cells xenografted in BALB/c mouse assessed as tumor weight at 240 mg/kg, ig administered every day for 10 days (reference value: 1.68 +/- 0.78 g); type: functional, Lewis lung carcinoma; conditions: time 10 day
[4] = Antitumor activity against […] cancer cells xenografted in BALB/c mouse assessed as tumor weight at 27 mg/kg, ig administered every day for 10 days (reference value: 1.68 +/- 0.78 g); type: functional, Lewis lung carcinoma; conditions: time 10 day
[5] = Antitumor activity against […] cancer cells xenografted in BALB/c mouse assessed as tumor growth inhibition at 240 mg/kg, ig administered every day for 10 days relative to control; type: functional; conditions: Lewis lung carcinoma, po, 240 h, time 10 day, read-out: TGI
[6] = Antitumor activity against […] cancer cells xenografted in BALB/c mouse assessed as tumor growth inhibition at 80 mg/kg, ig administered every day for 10 days relative to control; type: functional; conditions: Lewis lung carcinoma, po, 240 h, time 10 day, read-out: TGI
[7] = Antitumor activity against […] cancer cells xenografted in BALB/c mouse assessed as lung weight at 240 mg/kg, ig administered every day for 10 days measured post last dose (reference value: 0.13 +/- 0.03 g); type: functional, Lewis lung carcinoma; conditions: time 10 day
[8] = Antitumor activity against […] cancer cells xenografted in BALB/c mouse assessed as lung weight at 80 mg/kg, ig administered every day for 10 days measured post last dose (reference value: 0.13 +/- 0.03 g); type: functional, Lewis lung carcinoma; conditions: time 10 day
[9] = Antitumor activity against […] cancer cells xenografted in BALB/c mouse assessed as lung weight at 27 mg/kg, ig administered every day for 10 days measured post last dose (reference value: 0.13 +/- 0.03 g); type: functional, Lewis lung carcinoma; conditions: time 10 day
[10] = Toxicity in […] lung cancer cells xenografted BALB/c mouse assessed as net weight at 240 mg/kg, ig administered every day for 10 days (reference value: 1.16 +/- 1.55 g); type: organism-based; conditions: in vivo, po, 240 h, time 10 day
[11] = Toxicity in […] lung cancer cells xenografted BALB/c mouse assessed as net weight at 80 mg/kg, ig administered every day for 10 days (reference value: 1.16 +/- 1.55 g); type: organism-based; conditions: in vivo, po, 240 h, time 10 day
[12] = Toxicity in […] lung cancer cells xenografted BALB/c mouse assessed as survival rate at 240 mg/kg, ig administered every day for 10 days (reference value: 100%); type: organism-based; conditions: in vivo, po, time 10 day
[13] = Toxicity in […] lung cancer cells xenografted BALB/c mouse assessed as survival rate at 80 mg/kg, ig administered every day for 10 days (reference value: 100%); type: organism-based; conditions: in vivo, po, time 10 day
[14] = Toxicity in […] lung cancer cells xenografted BALB/c mouse assessed as survival rate at 27 mg/kg, ig administered every day for 10 days (reference value: 100%); type: organism-based; conditions: in vivo, po, time 10 day
[15] = Antitumor activity against […] cells xenografted in KM mouse assessed as tumor weight at 240 mg/kg, ig administered every day for 10 days (reference value: 0.55 +/- 0.57 g); type: functional; conditions: time 10 day
[16] = Antitumor activity against […] cells xenografted in KM mouse assessed as tumor weight at 80 mg/kg, ig administered every day for 10 days (reference value: 0.55 +/- 0.57 g); type: functional; conditions: time 10 day
[17] = Antitumor activity against […] cells xenografted in KM mouse assessed as tumor weight at 27 mg/kg, ig administered every day for 10 days (reference value: 0.55 +/- 0.57 g); type: functional; conditions: time 10 day
[18] = Antitumor activity against […] cells xenografted in KM mouse assessed as tumor growth inhibition at 240 mg/kg, ig administered every day for 10 days relative to control; type: functional; conditions: H22, po, 240 h, time 10 day, read-out: TGI
[19] = Antitumor activity against […] cells xenografted in KM mouse assessed as tumor growth inhibition at 80 mg/kg, ig administered every day for 10 days relative to control; type: functional; conditions: H22, po, 240 h, time 10 day, read-out: TGI
[20] = Antitumor activity against […] cells xenografted in KM mouse assessed as tumor growth inhibition at 27 mg/kg, ig administered every day for 10 days relative to control; type: functional; conditions: H22, po, 240 h, time 10 day, read-out: TGI
[21] = Antitumor activity against […] cells xenografted in KM mouse assessed as liver weight at 240 mg/kg, ig administered every day for 10 days measured post last dose (reference value: 1.57 +/- 0.3 g); type: functional; conditions: time 10 day
[22] = Antitumor activity against […] cells xenografted in KM mouse assessed as liver weight at 27 mg/kg, ig administered every day for 10 days measured post last dose (reference value: 1.57 +/- 0.3 g); type: functional; conditions: time 10 day
[23] = Toxicity in […] cells xenografted KM mouse assessed as net weight at 240 mg/kg, ig administered every day for 10 days (reference value: 9.45 +/- 4 g); type: organism-based; conditions: in vivo, po, 240 h, time 10 day
[24] = Toxicity in […] cells xenografted KM mouse assessed as net weight at 80 mg/kg, ig administered every day for 10 days (reference value: 9.45 +/- 4 g); type: organism-based; conditions: in vivo, po, 240 h, time 10 day
[25] = Toxicity in […] cells xenografted KM mouse assessed as survival rate at 240 mg/kg, ig administered every day for 10 days relative to control; type: organism-based; conditions: in vivo, po, time 10 day
[26] = Toxicity in […] cells xenografted KM mouse assessed as survival rate at 80 mg/kg, ig administered every day for 10 days relative to control; type: organism-based; conditions: in vivo, po, time 10 day
[27] = Toxicity in […] cells xenografted KM mouse assessed as survival rate at 27 mg/kg, ig administered every day for 10 days relative to control; type: organism-based; conditions: in vivo, po, time 10 day
[28] = target: Endoplasmic reticulum chaperone BiP (Homo sapiens) (UniProt P11021); test: Binding affinity to 78 kDa glucose-regulated protein in human A549 cells by LC-MS/MS analysis; type: cell-based
Endoplasmic reticulum chaperone BiP (Homo sapiens), sequence (P11021 whole entry): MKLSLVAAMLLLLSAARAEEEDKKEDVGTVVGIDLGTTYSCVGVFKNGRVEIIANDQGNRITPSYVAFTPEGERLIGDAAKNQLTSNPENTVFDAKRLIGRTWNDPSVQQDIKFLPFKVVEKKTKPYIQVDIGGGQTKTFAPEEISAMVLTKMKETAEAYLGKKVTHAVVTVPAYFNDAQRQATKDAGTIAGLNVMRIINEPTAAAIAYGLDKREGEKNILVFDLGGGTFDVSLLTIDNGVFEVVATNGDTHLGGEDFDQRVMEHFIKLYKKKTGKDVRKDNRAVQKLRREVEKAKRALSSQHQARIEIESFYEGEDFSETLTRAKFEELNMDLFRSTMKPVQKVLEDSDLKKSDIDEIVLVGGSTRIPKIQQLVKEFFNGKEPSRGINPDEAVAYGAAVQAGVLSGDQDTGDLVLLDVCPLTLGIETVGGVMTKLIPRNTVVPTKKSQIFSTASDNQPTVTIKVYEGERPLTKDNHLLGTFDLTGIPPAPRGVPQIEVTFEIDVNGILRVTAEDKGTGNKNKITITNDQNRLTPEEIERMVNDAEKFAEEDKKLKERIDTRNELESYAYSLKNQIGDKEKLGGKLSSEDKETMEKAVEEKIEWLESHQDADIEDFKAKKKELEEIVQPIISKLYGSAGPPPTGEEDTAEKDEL

[29] = target: Heat shock 70 kDa protein 1A/1B (Homo sapiens) (UniProt P0DMV8+P0DMV9); test: Binding affinity to heat shock 70 kDa protein 1A/1B in human A549 cells by LC-MS/MS analysis; type: cell-based
Heat shock 70 kDa protein 1A/1B (Homo sapiens), sequence (P0DMV8 whole entry, looked up): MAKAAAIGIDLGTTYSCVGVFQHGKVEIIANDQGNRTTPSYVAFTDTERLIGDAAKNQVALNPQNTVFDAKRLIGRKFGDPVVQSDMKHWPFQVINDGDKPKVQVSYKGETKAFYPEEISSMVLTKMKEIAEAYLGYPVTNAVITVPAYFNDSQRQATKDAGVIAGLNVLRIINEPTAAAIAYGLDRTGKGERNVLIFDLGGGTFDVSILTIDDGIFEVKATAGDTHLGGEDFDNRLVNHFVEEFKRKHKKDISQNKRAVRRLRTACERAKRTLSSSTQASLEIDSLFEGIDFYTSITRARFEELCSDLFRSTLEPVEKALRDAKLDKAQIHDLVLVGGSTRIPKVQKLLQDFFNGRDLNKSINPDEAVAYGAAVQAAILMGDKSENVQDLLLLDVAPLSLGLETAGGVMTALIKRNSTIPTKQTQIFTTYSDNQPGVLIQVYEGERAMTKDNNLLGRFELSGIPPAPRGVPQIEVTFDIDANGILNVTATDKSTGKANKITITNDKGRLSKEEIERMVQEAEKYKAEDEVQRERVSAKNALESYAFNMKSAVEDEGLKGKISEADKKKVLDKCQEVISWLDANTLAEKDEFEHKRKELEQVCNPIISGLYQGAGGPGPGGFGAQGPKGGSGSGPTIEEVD
Heat shock 70 kDa protein 1A/1B (Homo sapiens), sequence (P0DMV9 whole entry, looked up): as the sequence (P0DMV8 whole entry, looked up) above

[30] = target: Glyceraldehyde-3-phosphate dehydrogenase (Homo sapiens) (UniProt P04406); test: Binding affinity to GAPDH in human A549 cells by LC-MS/MS analysis; type: cell-based
Glyceraldehyde-3-phosphate dehydrogenase (Homo sapiens), sequence (P04406 2-335 limits assumed): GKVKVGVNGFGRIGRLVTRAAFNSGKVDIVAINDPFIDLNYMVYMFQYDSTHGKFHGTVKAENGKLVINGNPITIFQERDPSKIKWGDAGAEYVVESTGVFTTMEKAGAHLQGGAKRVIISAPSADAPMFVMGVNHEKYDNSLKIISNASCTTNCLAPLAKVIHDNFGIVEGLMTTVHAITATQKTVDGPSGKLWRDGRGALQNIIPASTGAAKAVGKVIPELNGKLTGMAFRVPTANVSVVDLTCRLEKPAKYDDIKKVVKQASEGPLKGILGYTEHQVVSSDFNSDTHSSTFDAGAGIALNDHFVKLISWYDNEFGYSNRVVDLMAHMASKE

[31] = target: Dihydropyrimidinase-related protein 2 (Homo sapiens) (UniProt Q16555); test: Binding affinity to dihydropyrimidinase-related protein 2 isoform 1 in human A549 cells by LC-MS/MS analysis; type: cell-based
[32] = target: Tropomyosin alpha-1 chain (Homo sapiens) (UniProt P09493); test: Binding affinity to tropomyosin alpha-1 chain isoform 1 in human A549 cells by LC-MS/MS analysis; type: cell-based
Tropomyosin alpha-1 chain (Homo sapiens), sequence (P09493 whole entry, canonical isoform): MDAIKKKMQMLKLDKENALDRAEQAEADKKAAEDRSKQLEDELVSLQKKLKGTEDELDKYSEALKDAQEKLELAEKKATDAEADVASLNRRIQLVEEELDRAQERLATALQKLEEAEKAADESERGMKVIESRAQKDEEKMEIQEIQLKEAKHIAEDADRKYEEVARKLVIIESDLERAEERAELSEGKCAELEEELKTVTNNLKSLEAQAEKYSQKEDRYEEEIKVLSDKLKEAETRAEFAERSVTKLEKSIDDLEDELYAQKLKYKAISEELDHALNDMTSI

## CC(C)[C@@H](C)/C=C/[C@@H](C)[C@H]1CC[C@H]2C3=CC=C4C[C@@H](O)CC[C@]4(C)[C@H]3CC[C@]12C [ERGOSTEROL]
[1]
  inhibition of growth at 12.5 µg/mL: 100%
[2]
  inhibition of growth at 12.5 µg/mL: 100%
[3]
  Activity: 0.93 g
[4]
  Activity: 1.42 g
[5]
  inhibition in vivo at 240 mg/kg: 44.6%
[6]
  inhibition in vivo at 80 mg/kg: 28.4%
[7]
  Activity: 0.13 g
[8]
  Activity: 0.12 g
[9]
  Activity: 0.12 g
[10]
  Activity: -0.61 g
[11]
  Activity: -0.95 g
[12]
  survival at 240 h: 100%
[13]
  survival at 240 h: 100%
[14]
  survival at 240 h: 100%
[15]
  Activity: 0.19 g
[16]
  Activity: 0.32 g
[17]
  Activity: 0.42 g
[18]
  inhibition in vivo at 240 mg/kg: 64.4%
[19]
  inhibition in vivo at 80 mg/kg: 41.1%
[20]
  inhibition in vivo at 27 mg/kg: 23.4%
[21]
  Activity: 1.57 g
[22]
  Activity: 1.67 g
[23]
  Activity: 5.7 g
[24]
  Activity: 7.78 g
[25]
  survival at 240 h: 100%
[26]
  survival at 240 h: 100%
[27]
  survival at 240 h: 100%
[28]
  Activity: Active
[29]
  Activity: Active
[30]
  Activity: Active
[31]
  Activity: Active
[32]
  Activity: Active
